Measured values: publication PMC6151488, “Structure, Absolute Configuration, and Antiproliferative Activity of Abietane and Icetexane Diterpenoids from Salvia ballotiflora” (Molecules : A Journal of Synthetic Chemistry and Natural …, 2017)
Where two headings read alike, the source gives them in different places.

Assays:
[1] = test system: HeLa cells; set-up: method as in doi:10.1016/j.bjp.2017.01.007; settings: similar activity when compared to cisplatin; cited from earlier work
[2] = test system: MCF-7 (human mammary adenocarcinoma); test: Sulforhodamine B (SRB) cytotoxicity assay, MCF-7; format: cell-based; settings: for IC50: SRB assay, 48 h exposure, mean ± SD, read-out: IC50 antiproliferative activity, MCF-7
Text: (§1) The natural products were screened in vitro against the following human cancer cell lines: human mammary adenocarcinoma (MCF-7), human chronic myelogenous leukemia (K562), human glioblastoma (U251), human lung adenocarcinoma (SKLU-1), human colon cancer (HCT-15), human prostate cancer (PC-3), healthy gingival human fibroblasts (FGH), and normal monkey kidney cell lines, which were supplied by the National Cancer Institute (NCI, USA) and American Type Culture Collection (ATTC). The human tumor cytotoxicity was determined using the protein-binding dye sulforhodamine B (SRB) in a microculture assay to measure cell growth, as described in the protocol established by the NCI [30]. The cell lines were cultured in RPMI-1640 medium supplemented with 10% fetal bovine serum, 2 mM L-glutamine, 10,000 units/mL penicillin G sodium, 10,000 μg/mL streptomycin sulfate, and 25 μg/mL amphotericin B (Gibco), and 1% non-essential amino acids (Gibco). They were maintained at 37 °C in a humidified atmosphere with 5% CO2. The viability of the cells used in the experiments exceeded 95%, as determined with trypan blue.
(§2) Cytotoxicity after treatment of the tumors cells and normal cells with the test compounds were determined using the protein-binding dye sulforhodamine B (SRB) in a microculture assay to measure cell growth. The cells were removed from the tissue culture flasks by treatment with trypsin, and diluted with fresh media. Of these cell suspensions, 100 μL containing 5000–10,000 cells per well were pipetted into 96-well microtiter plates (Costar) and the material was incubated at 37 °C for 24 h in a 5% CO2 atmosphere. Subsequently, 100 μL of a solution of the compound obtained by diluting the stocks were added to each well. The cultures were exposed to the compound for 48 h. After the incubation period, cells were fixed to the plastic substratum by the addition of 50 μL of cold 50% aqueous trichloroacetic acid. The plates were incubated at 4 °C for 1 h, washed with tap water, and air-dried. The trichloroacetic-acid-fixed cells were stained by the addition of 0.4% SRB. The free SRB solution was then removed by washing with 1% aqueous acetic-acid. The plates were air-dried, and the bound dye was dissolved by the addition of 10 mM unbuffered Tris base (100 μL). The plates were placed on a shaker for 10 min, and the absorption was determined at 515 nm using an ELISA plate reader (Bio-Tex Instruments).

[3] = test system: PC-3 (human prostate cancer); test: Sulforhodamine B (SRB) cytotoxicity assay, PC-3; format: cell-based; settings: for inhibition at 50 µM: primary screening at 50.0 μM, mean n = 2, NC = No cytotoxic, read-out: Antiproliferative activity (%), PC-3
Text: as §1, §2

[4] = test system: HCT-15 (human colon cancer); test: Sulforhodamine B (SRB) cytotoxicity assay, HCT-15; format: cell-based; settings: for inhibition at 50 µM: primary screening at 50.0 μM, mean n = 2, NC = No cytotoxic, read-out: Antiproliferative activity (%), HCT-15
Text: as §1, §2

[5] = test system: TPA-induced ear edema; test: TPA-induced ear edema test in mice; format: in vivo; settings: mice CD-1, 1.0 μmol ear^-1 topical, 4 h after TPA, mean ± SEM; for Inhibition of Edema (%): NA = Non-active
Description: Male CD-1 mice weighing 25–30 g were maintained under standard laboratory conditions in the animal house (temperature 24 ± 2 °C) in a 12/12 h light/dark cycle, fed a laboratory diet and water ad libitum, following the Mexican official norm NOM-062-Z00-1999.
The TPA-induced ear edema assay in mice was performed as reported in reference. A solution of TPA (2.5 μg) in ethanol (10 μL) was applied topically to both faces (5 μL each ear) of the right ear of the mice, 10 min after solutions of the test substances in their respective solvents were applied (10 μL each face). The left ear received ethanol (10 μL) first, followed by 20 μL of the respective solvent. The mice were killed with CO2 four hours later. A 7-mm diameter plug was removed from each ear. The swelling was assessed as the difference in weight between the left and the right ear. Control animals received the correspondent solvent in each case. Edema inhibition (EI %) was calculated by the equation EI % = 100 − (B × 100/A), where A is the edema induced by TPA alone and B is the edema induced by TPA plus the sample. Indomethacin and celecoxib were used as reference compounds.

[6] = test system: K562 (human chronic myelogenous leukemia); test: Sulforhodamine B (SRB) cytotoxicity assay, K562; format: cell-based; settings: for IC50: SRB assay, 48 h exposure, mean ± SD, read-out: IC50 antiproliferative activity, K562; for inhibition at 50 µM / Antiproliferative activity (%), K562: primary screening at 50.0 μM, NC = No cytotoxic
Text: as §1, §2

[7] = test system: SKLU-1 (human lung adenocarcinoma); test: Sulforhodamine B (SRB) cytotoxicity assay, SKLU-1; format: cell-based; settings: for IC50: SRB assay, 48 h exposure, mean ± SD, read-out: IC50 antiproliferative activity, SKLU-1; for inhibition at 50 µM: primary screening at 50.0 μM, NC = No cytotoxic
Text: as §1, §2

[8] = test system: COS-7 normal monkey kidney; test: Sulforhodamine B (SRB) cytotoxicity assay, COS-7 normal cell line; format: cell-based; settings: Primates, mean ± SD
Text: as §1
as §2, with “The plates were incubated at 4 °C for 1 h, washed with tap water, and air-dried. The trichloroacetic-acid-fixed cells were stained by the addition of 0.4% SRB. The free SRB solution was then removed by washing with 1% aqueous acetic-acid. The plates were air-dried, and the bound dye was dissolved by the addition of 10 mM unbuffered Tris base (100 μL).” left out

[9] = test system: U251 (human glioblastoma); test: Sulforhodamine B (SRB) cytotoxicity assay, U251; format: cell-based; settings: for inhibition at 50 µM: primary screening at 50.0 μM, NC = No cytotoxic
Text: as §1, with “CO2.” for “CO2. The viability of the cells used in the experiments exceeded 95%, as determined with trypan blue.”
as §2

[10] = Scavenging activity on free radical DPPH; settings: at 100 μM; 30 min, 37 °C
Description: Free radical scavenging activity was measured using an adapted method of Mellors and Tappel. The test was carried out in 96-well microplates. A 50-μL aliquot of the solution of the test compound was mixed with 150 μL of an ethanol solution of DPPH (final concentration 100 μM). The mixture was incubated at 37 °C for 30 min, and the absorbance was then measured at 515 nm using a BioTek microplate reader SYNERGY HT. The percent inhibition was determined by comparison with a 100-μM DPPH ethanol blank solution.

[11] = test system: healthy gingival human fibroblasts (FGH); test: Sulforhodamine B (SRB) cytotoxicity assay, FGH primary culture; format: cell-based; settings: primary screening at 50.0 μM; mean n = 2; NC = No cytotoxic
Text: as §1, with “They were maintained at 37 °C in a humidified atmosphere with 5% CO2.” left out
(§3) Cytotoxicity after treatment of the tumors cells and normal cells with the test compounds were determined using the protein-binding dye sulforhodamine B (SRB) in a microculture assay to measure cell growth. […] The plates were placed on a shaker for 10 min, and the absorption was determined at 515 nm using an ELISA plate reader (Bio-Tex Instruments).

[12] = test system: six human cancer cell lines (U251, PC-3, K562, HCT-15, MCF-7, SKLU-1) and FGH; test: SRB primary screening, whole panel (result in words); format: cell-based; settings: primary screening at 50 μM; cancer cell lines other than K562 and MCF-7
Description: The same biological activity was also recently described for icetexane-derivatives isolated from Premna and Amentotaxus species. […] These facts prompted us to assay diterpenoids 3, 4, 6–8 and 10 for antiproliferative activity using six human cancer cell lines (U251, PC-3, K562, HCT-15, MCF-7, and SKLU-1), and a primary culture of healthy gingival human fibroblasts (FGH) at 1.0 or 50.0 μM (when cytotoxicity at 50.0 μM results were too high). […] Overall, the antiproliferative activity determined for 7 was lower than that observed for 6.
as §1, §3

[13] = primary screening at 1.0 μM, mean n = 2
[14] = Homo sapiens, MCF7, primary screening at 50.0 μM, mean n = 2, NC = No cytotoxic, read-out: Antiproliferative activity (%), MCF-7
[15] = primary screening at 50.0 μM, mean n = 2, NC = No cytotoxic
[16] = Homo sapiens, K562, mean n = 2, read-out: Antiproliferative activity (%), K562
[17] = Homo sapiens, SK-LU-1, mean n = 2, read-out: Antiproliferative activity (%), SKLU-1
[18] = Homo sapiens, U-251, mean n = 2, read-out: Antiproliferative activity (%), U251

Compound	melting point	Edema [5]	Inhibition of Edema (%) [5]	DPPH inhibitory effect (%) [10]	IC50 ([2]; Homo sapiens, MCF7)	inhibition at 50 µM [2, 14]	Antiproliferative activity (%), MCF-7 [2, 15]	inhibition at 50 µM [3]	inhibition at 50 µM [4]	IC50 ([6]; Homo sapiens, K562)	inhibition at 50 µM [6, 16]	Antiproliferative activity (%), K562 ([6]; mean n = 2)	inhibition at 50 µM [7, 17]	inhibition at 50 µM [9, 18]	Antiproliferative activity (%), FGH [11]	further results
19-deoxyisoicetexone																IC50 [1]: 9.36 µM
CC(C)C1=C(O)C(=O)C2=CC3=CCCC4(C)C(=O)OC(C=C2C1=O)C34 (centres unmarked) [Compound 6, Anastomosine]	220 to 224 °C	15.97 ± 0.61 mg	non-active	8.2%												inhibition at 1 µM ([2]; Homo sapiens, MCF7, primary screening at 1.0 μM, mean n = 2, NC = No cytotoxic, read-out: Antiproliferative activity (%), MCF-7): 51.3%; Antiproliferative activity (%), MCF-7 ([2]; primary screening at 1.0 μM, mean n = 2, NC = No cytotoxic): moderately toxic; inhibition at 1 µM ([3]; primary screening at 1.0 μM, mean n = 2, read-out: Antiproliferative activity (%), PC-3): 82.3%; inhibition at 1 µM ([4]; primary screening at 1.0 μM, mean n = 2, read-out: Antiproliferative activity (%), HCT-15): 85.6%; inhibition at 1 µM ([6]; Homo sapiens, K562, primary screening at 1.0 μM, mean n = 2, read-out: Antiproliferative activity (%), K562): 76.4%; IC50 ([7]; Homo sapiens, SK-LU-1, 48 h): 0.82 ± 0.06 µM; inhibition at 1 µM ([7]; Homo sapiens, SK-LU-1, primary screening at 1.0 μM, mean n = 2, read-out: Antiproliferative activity (%), SKLU-1): 100%; IC50 [7]: 0.46 ± 0.05 µM; Antiproliferative activity (%), SKLU-1 [7, 13]: very toxic; SI (selectivity index), SKLU-1 ([7]; quotient of IC50 of COS-7 / IC50 of SKLU-1): 1.3; IC50 [8]: 0.61 ± 0.007 µM; inhibition at 1 µM ([9]; Homo sapiens, U-251, primary screening at 1.0 μM, mean n = 2, read-out: Antiproliferative activity (%), U251): 98.4%; Antiproliferative activity (%), U251 [9, 13]: very toxic; SI (selectivity index), U251 ([9]; quotient of IC50 of COS-7 / IC50 of U251): 2.3
CC(C)C1=C(O)C(=O)C2=C(CC3OC(=O)C4(C)CCC=C(C2)C34)C1=O (centres unmarked) [Compound 7, 7,20-Dihydroanastomosine]	223 to 227 °C	15.50 ± 0.76 mg	non-active	6.6%	33.2 ± 1.2 µM	62.6%	moderate toxicity	17.8%	26.8%	31.2 ± 1.1 µM	63.2%	moderate toxicity	46.5%	10.1%	non-toxic	
CC(C)C1=C(O)C(=O)C2=C(C=C[C@@H]3[C@]4(CCC[C@]3(C)C(=O)O4)C2)C1=O [Compound 8, icetexone]				3.7%	28.7 ± 1.6 µM	71.6%	significant antiproliferative activity	39.6%	29%	17 ± 1.4 µM	83.1%	significant antiproliferative activity	52.9%	35.8%	lacked of toxicity	Activity against all other tested cancer cell lines (in words) [12]: moderately active
